The text below walks through data of ChEMBL document CHEMBL2406984, “Design and synthesis of hydroxyethylamine (HEA) BACE-1 inhibitors: prime side chromane-containing inhibitors” (Bioorg Med Chem Lett, 2013).

The target of one data set is Beta-secretase 1 (Homo sapiens, UniProt P56817). As to the kind of experiment: Inhibition of recombinant BACE-1 (unknown origin) expressed in Escherichia coli using biotinylated peptide substrate treated 20 mins before substrate addition measured after 3 hrs by fluorescence polarization assay.
Sequence of Beta-secretase 1 (P56817 whole entry): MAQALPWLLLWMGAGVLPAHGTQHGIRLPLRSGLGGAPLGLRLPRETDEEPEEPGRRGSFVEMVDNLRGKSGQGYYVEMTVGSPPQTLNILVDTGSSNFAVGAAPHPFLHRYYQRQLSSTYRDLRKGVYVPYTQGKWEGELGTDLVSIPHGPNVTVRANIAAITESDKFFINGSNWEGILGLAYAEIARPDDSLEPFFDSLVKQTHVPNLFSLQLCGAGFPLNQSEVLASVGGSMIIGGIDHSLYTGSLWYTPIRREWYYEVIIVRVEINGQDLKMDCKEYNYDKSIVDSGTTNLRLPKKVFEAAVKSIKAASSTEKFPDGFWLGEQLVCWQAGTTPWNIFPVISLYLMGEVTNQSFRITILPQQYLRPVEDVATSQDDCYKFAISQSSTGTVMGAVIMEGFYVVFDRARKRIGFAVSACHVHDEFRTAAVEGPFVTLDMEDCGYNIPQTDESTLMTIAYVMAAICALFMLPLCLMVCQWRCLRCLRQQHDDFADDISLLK
The next data set addresses Cathepsin D (Homo sapiens, UniProt P07339). As to the kind of experiment: Inhibition of cathepsin-D (unknown origin) using C-terminal biotinylated peptide substrate treated 30 mins before addition of peptide substrate measured after 110 mins by fluorescence polarization assay. In general terms: Polarisation of emitted light reports the rotation of a fluorescent probe.

Data set [1] in a line: Apparent permeability of the compound from apical to basolateral side of MDCK2 cells at 5 uM after 120 mins by LC/MS/MS analysis. It is filed as ADME, cell-based, Canis lupus familiaris, MDCK-II. The note with it: dog, MDCK.
Data set [2] can be described thus: Dissociation constant, pKa of the compound. It is filed as physicochemical.
The nature of data set [3]: Lipophilicity, log P of the compound. It is filed as physicochemical. As to conditions: octanol/water.

Molecules are shown by their SMILES.

Sequence of Cathepsin D (P07339 65-162 limits assumed): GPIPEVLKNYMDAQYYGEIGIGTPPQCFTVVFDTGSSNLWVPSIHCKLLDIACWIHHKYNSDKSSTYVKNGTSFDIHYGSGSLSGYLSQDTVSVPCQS
Sequence of Cathepsin D (P07339 169-412 limits assumed): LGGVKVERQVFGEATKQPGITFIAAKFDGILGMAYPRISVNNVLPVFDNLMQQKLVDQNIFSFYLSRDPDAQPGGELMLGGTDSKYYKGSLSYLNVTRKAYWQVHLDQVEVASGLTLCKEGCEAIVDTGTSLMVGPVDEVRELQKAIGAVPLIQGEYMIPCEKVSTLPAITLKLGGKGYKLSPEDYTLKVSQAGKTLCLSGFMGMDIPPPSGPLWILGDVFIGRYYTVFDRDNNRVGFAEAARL

A word on the IC50: it is the concentration that gives 50% inhibition. Turning to `CC(=O)N[C@@H](Cc1cc(F)cc(F)c1)[C@H](O)CN[C@H]1CCN(C)c2ccc(CC(C)(C)C)cc21`, the values for the IC50 at Beta-secretase 1 and at Cathepsin D were 643 nM and 68 nM, respectively.

The Papp A→B is the apparent permeability from the apical to the basolateral side of a cell layer. For the molecule `CC(=O)N[C@@H](Cc1cc(F)cc(F)c1)[C@H](O)CN[C@H]1CCOc2ccc(CC(C)(C)C)cc21`, the IC50 came to 46 nM at Beta-secretase 1 and 12 nM against Cathepsin D. In addition, the Papp A→B at 2 h, 5 µM in data set [1] stood at 3 ×10⁻⁶ cm/s.

As for `CC(=O)N[C@@H](Cc1cc(F)cc(F)c1)[C@H](O)CN[C@H]1COCc2ccc(CC(C)(C)C)cc21`, the IC50 on Beta-secretase 1 was found to be 19700 nM.

A word on the pKa: it is the pH at which an ionisable group is half protonated. Low values mean a group that gives up its proton readily, high ones a group that holds its proton tightly. One may read the logP as a log measure of how a compound divides between an organic and an aqueous phase. In data set [2], `CCc1ccc2c(c1)[C@@H](NC[C@@H](O)[C@H](Cc1cc(F)cc(F)c1)NC(C)=O)CS(=O)(=O)C2` showed a pKa of 5.8. This molecule also registered a logP in data set [3] of 3.2. Moreover, the IC50 was 116 nM at Beta-secretase 1 and 2840 nM on Cathepsin D. In addition, in data set [1], the Papp A→B at 2 h, 5 µM stood at 0.3 ×10⁻⁶ cm/s.

As to `CC(=O)N[C@@H](Cc1cc(F)cc(F)c1)[C@H](O)CN[C@H]1CS(=O)(=O)Cc2ccc(C(C)C)cc21`, the IC50 at Beta-secretase 1 worked out at 127 nM; against Cathepsin D it was 940 nM.

Consider `CC(=O)N[C@@H](Cc1cc(F)cc(F)c1)[C@H](O)CN[C@H]1CS(=O)(=O)Cc2ccc(CC(C)(C)C)cc21`, for which the IC50 at Beta-secretase 1 amounted to 42 nM; at Cathepsin D, 362 nM.

For `CC(=O)N[C@@H](Cc1cc(F)cc(F)c1)[C@H](O)CN[C@H]1CCOc2ccc(CC(C)(C)F)cc21`, the IC50 at Beta-secretase 1 came to 148 nM; at Cathepsin D, 80 nM. Also, in data set [1], the Papp A→B at 2 h, 5 µM came out at 8.3 ×10⁻⁶ cm/s.

Take `CC(=O)N[C@@H](Cc1cc(F)cc(F)c1)[C@H](O)CN[C@H]1CCOc2ccc(CC(C)(F)F)cc21`: the results for the IC50 on Beta-secretase 1 and against Cathepsin D were 186 nM and 144 nM, respectively. The Papp A→B at 2 h, 5 µM in data set [1] is 14.6 ×10⁻⁶ cm/s.

As for `CC(=O)N[C@@H](Cc1cc(F)cc(F)c1)[C@H](O)CN[C@H]1CCOc2ccc(CC(C)(C)C#N)cc21`, the IC50 at Beta-secretase 1 stood at 60 nM; against Cathepsin D, 70 nM. The Papp A→B at 2 h, 5 µM in data set [1] is 6.4 ×10⁻⁶ cm/s.

On to `CC(=O)N[C@@H](Cc1cc(F)cc(F)c1)[C@H](O)CN[C@H]1CCOc2ccc(CC(C)(C)C(F)F)cc21`, for which the values for the IC50 on Beta-secretase 1 and at Cathepsin D were 1300 nM and 478 nM, respectively.

In the case of `CC(=O)N[C@@H](Cc1cc(F)cc(F)c1)[C@H](O)CN[C@H]1CCOc2ccc(OC(C)C)cc21`, the IC50 was determined as 414 nM on Beta-secretase 1 and 429 nM against Cathepsin D. The apparent permeability from apical to basolateral (Papp A→B) at 2 h, 5 µM in data set [1] came out at 11.2 ×10⁻⁶ cm/s.

On to `CC(=O)N[C@@H](Cc1cc(F)cc(F)c1)[C@H](O)CN[C@H]1CCOc2ccc(OC3CCCC3)cc21`, for which the values for the IC50 at Beta-secretase 1 and on Cathepsin D were 221 nM and 145 nM, respectively.

For `CC(=O)N[C@@H](Cc1cc(F)cc(F)c1)[C@H](O)CN[C@H]1CC(C)(C)Oc2ccc(CC(C)(C)C)cc21`, the IC50 on Beta-secretase 1 was found to be 8 nM; on Cathepsin D, 18 nM. Besides, the Papp A→B at 2 h, 5 µM in data set [1] came out at 0.3 ×10⁻⁶ cm/s.

Turning to `CCC[C@@]1(C)C[C@H](NC[C@@H](O)[C@H](Cc2cc(F)cc(F)c2)NC(C)=O)c2cc(CC(C)(C)C)ccc2O1`, the figures for the IC50 at Beta-secretase 1 and at Cathepsin D were 6 nM and 1 nM, respectively.

As to `CCC[C@]1(C)C[C@H](NC[C@@H](O)[C@H](Cc2cc(F)cc(F)c2)NC(C)=O)c2cc(CC(C)(C)C)ccc2O1`, the IC50 is 15 nM on Beta-secretase 1 and 2 nM on Cathepsin D.

Regarding `CC(=O)N[C@@H](Cc1cc(F)cc(F)c1)[C@H](O)CN[C@H]1CC2(COC2)Oc2ccc(CC(C)(C)C)cc21`, the IC50 at Beta-secretase 1 worked out at 27100 nM; against Cathepsin D it was 22500 nM.

`CC(=O)N[C@@H](Cc1cc(F)cc(F)c1)[C@H](O)CN[C@H]1CC(C)(C)Oc2ccc(CC(C)(F)F)cc21`: the values for the IC50 at Beta-secretase 1 and against Cathepsin D were 9 nM and 16 nM, respectively. Further, the Papp A→B at 2 h, 5 µM in data set [1] turned out to be 1.7 ×10⁻⁶ cm/s.

`CC(=O)N[C@@H](Cc1cc(F)cc(F)c1)[C@H](O)CN[C@H]1CC(C)(C)Oc2ccc(CC(C)(C)C#N)cc21`: the values for the IC50 on Beta-secretase 1 and at Cathepsin D were 6 nM and 8 nM, respectively. Further, the Papp A→B at 2 h, 5 µM in data set [1] turned out to be 2.5 ×10⁻⁶ cm/s.

`CC(=O)N[C@@H](Cc1cc(F)cc(F)c1)[C@H](O)CN[C@H]1CC(C)(C)Oc2ccc(OC(F)(F)F)cc21`: the IC50 at Beta-secretase 1 was 89 nM; against Cathepsin D, 59 nM. The Papp A→B at 2 h, 5 µM in data set [1] was found to be 1.2 ×10⁻⁶ cm/s.

As for `CC(=O)N[C@@H](Cc1cc(F)cc(F)c1)[C@H](O)CN[C@H]1CC(C)(C)Oc2ccc(OC(C)(C)C)cc21`, the figures for the IC50 at Beta-secretase 1 and against Cathepsin D were 690 nM and 374 nM, respectively. In data set [1], the Papp A→B at 2 h, 5 µM stood at 1.1 ×10⁻⁶ cm/s.

`CC(=O)N[C@@H](Cc1cc(F)cc(F)c1)[C@H](O)CN[C@H]1CCCc2ccc(CC(C)(C)C)cc21`: in data set [2], the pKa turned out to be 8.9. Moreover, the logP in data set [3] came out at 4.9. Besides, the figures for the IC50 on Beta-secretase 1 and on Cathepsin D were 45 nM and 8 nM, respectively. The Papp A→B at 2 h, 5 µM in data set [1] came out at 0.3 ×10⁻⁶ cm/s.

In the case of `CC(=O)N[C@@H](Cc1cc(F)cc(F)c1)[C@H](O)CN[C@H]1CCCc2ccc(Cc3ccccc3)cc21`, the IC50 on Beta-secretase 1 was 4700 nM; against Cathepsin D it was 251 nM.

In the case of `CCc1ccc2c(c1)[C@@H](NC[C@@H](O)[C@H](Cc1cc(F)cc(F)c1)NC(C)=O)CCC2`, the IC50 at Beta-secretase 1 came to 538 nM; against Cathepsin D, 126 nM.

Turning to `CCCCc1ccc2c(c1)[C@@H](NC[C@@H](O)[C@H](Cc1cc(F)cc(F)c1)NC(C)=O)CCC2`, the results for the half-inhibitory concentration (IC50) on Beta-secretase 1 and on Cathepsin D were 574 nM and 77 nM, respectively.

Regarding `CC(=O)N[C@@H](Cc1cc(F)cc(F)c1)[C@H](O)CN[C@H]1CCCc2ccc(CC(C)C)cc21`, at Beta-secretase 1, the IC50 worked out at 93 nM.

Regarding `CC(=O)N[C@@H](Cc1cc(F)cc(F)c1)[C@H](O)CN[C@H]1CCCc2ccc(C(C)(C)C)cc21`, the IC50 on Beta-secretase 1 was determined as 378 nM; at Cathepsin D, 74 nM.

As for `CC(=O)N[C@@H](Cc1cc(F)cc(F)c1)[C@H](O)CN[C@H]1CCOc2ccc(OC3CCCO3)cc21` (mixture of isomers), the IC50 at Beta-secretase 1 is 1320 nM; against Cathepsin D it was 286 nM. Moreover, the Papp A→B at 2 h, 5 µM in data set [1] is 11 ×10⁻⁶ cm/s.

With `CC(=O)N[C@@H](Cc1cc(F)cc(F)c1)[C@H](O)CN[C@H]1CCOc2ccc(OC3CCOC3)cc21` (mixture of isomers), the values for the IC50 on Beta-secretase 1 and on Cathepsin D were 858 nM and 255 nM, respectively. Also, in data set [1], the Papp A→B at 2 h, 5 µM was 7.1 ×10⁻⁶ cm/s.

Consider `COC[C@@]1(C)C[C@H](NC[C@@H](O)[C@H](Cc2cc(F)cc(F)c2)NC(C)=O)c2cc(CC(C)(C)C)ccc2O1` (mixture of isomers), for which the IC50 on Beta-secretase 1 turned out to be 9 nM; against Cathepsin D, 5 nM.

In the case of `CC(=O)N[C@@H](Cc1cc(F)cc(F)c1)[C@H](O)CN[C@H]1CC2(CC2)Oc2ccc(CC(C)(C)C)cc21` (mixture of isomers), the IC50 was 22 nM at Beta-secretase 1 and 6 nM against Cathepsin D.
